The source of these data is patent US20210340563A1, “DONOR T-CELLS WITH KILL SWITCH” (CSL BEHRING LLC, priority 2018, published 2021).

Series [1] relates to CEM cells. Nature of the series: negative selection with MTX or MPA on CEM cells. In kind it is cell-based. Particulars: 1 μM of MPA or 0.3 μM of MTX or 10 μM of MPA; for GFP-population of transduced cells under MPA or MTX: CEM experiment.
Series [2] deals with K562 cells. Nature of the series: negative selection with MTX on K562 cells. To be noted: 0.3 μM of MTX, day 0 to day 14. It is filed as cell-based, human. On the procedure:
Transduced or transfected K562 cells (such as those from Example 1) were cultured with or without MTX from day 0 to day 14. The medium was refreshed every 3 to 4 days. GFP was analyzed on a flow machine and the InDel % was analyzed by T7E1 assay. […] On the other hand, the population of cells was steady without MTX. FIG. 14B illustrates that the transfected K562 cells were eliminated under treatment with 0.3 μM of MTX at a faster pace as compared with the HPRT-knockdown population.
K562 cells were transduced with either (i) a TL20cw-GFP virus soup at dilution factor of 16, (ii) a TL20cw-Ubc/GFP-7SK/sh734 virus soup at a dilution factor of 16 (one sequentially encoding GFP and a shRNA designed to knockdown HPRT); or (iii) a TL20cw-7SK/sh734-UBC/GFP virus soup at a dilution factor of 16 (one sequentially encoding a shRNA designed to knockdown HPRT and GFP) (see FIG. 16). K562 cells were also transduced by a TL20cw-7SK/sh734-UBC/GFP virus soup at a dilution factor of 1024 (one encoding a nucleic acid encoding a shRNA designed to knockdown HPRT) (also shown in FIG. 16). Three days following transduction, all cells were cultured with medium containing 0.3 μM of MTX 3. […] The relative sh734 expression per vector copy number (VCN) for sh734-GFP-transduced cells and GFP-sh734-transduced cells were measured.

The subject of series [3] is CEM cells. The series can be described thus: 6TG selection of HPRT knockdown/knockout CEM cells. It is filed as cell-based. As to the method:
CEM cells were transduced with an expression vector including a nucleic acid sequence designed to knockdown HPRT and a nucleic acid sequence encoding the green fluorescent protein or transfected with a nanocapsule including CRISPR/Cas9 and a sgRNA to HPRT at day 0. 6TG was added into the medium from day 3 to day 17. The medium was refreshed every 3 to 4 days. GFP as analyzed on a flow machine and the InDel % is analyzed by a T7E1 assay. FIG. 13A illustrates that the GFP+ population of transduced K562 cells increased from day 3 to day 17 under treatment of 6TG while GFP+ population was almost steady without. […] It should be noted that 6TG selection process occurred faster on HPRT knockout cells rather than HPRT knockdown cells (MOI=1) at the same concentration of 6TG from day 3 to day 17.

Series [4] has as its system Jurkat cells. The series can be described thus: 6-TG resistance of HPRT knockout Jurkat cells, luminescence (ATP detection) cell viability. In kind it is cell-based. On the procedure:
(§1) Jurkat cells were electroporated with a ribonucleoprotein (RNP) complex containing guide RNA (gRNA; GS-4; designated IDT-4) together with the Cas9 and tracrRNA. Cells which were confirmed to be transfected with the gRNA via tracr RNA were purified using fluorescence activated cells sorting (FACS) and subsequently cultured for 72 hours. Increasing concentrations of 6-thioguanine (6-TG) were then administered to the transduced cultured cells to assess resistance. Wild type (unmodified) Jurkat cells were used as a control.
Luminescence (ATP detection) was used to assess cell viability.

In series [5] the test system is K562 cells. The series can be described thus: ex vivo 6TG selection of HPRT knockdown/knockout K562 cells. In kind it is cell-based, human. On the procedure:
These initial preliminary experiments were performed in K562 cells (human immortalized myelogenous leukemia line) (rsh7-GFP=short hairpin to HPRT/GFP lentiviral vector to knockdown HPRT; nanoRNP-HPRT=CRISPR/Cas9 ribonucleoprotein nanocapsules to knockout HPRT).
K562 cells were transduced with an expression vector including a nucleic acid sequence designed to knockdown HPRT and a nucleic acid sequence encoding the green fluorescent protein (GFP) (MOI=1/2/5); or were transfected with a nanocapsule including CRISPR/Cas9 and a sgRNA to knockout HPRT (100 ng/5×10^4 cells) at day zero (0). 6TG was added into the medium from day 3 through day 14. The medium was refreshed every 3 to 4 days. GFP was analyzed on a flow machine and the InDel % as analyzed with a T7E1 assay.

In series [6] the test system is Jurkat cells. Nature of the series: methotrexate dose response of HPRT knockout Jurkat cells. It is filed as cell-based. Particulars: MTX 0.00625 and 0.0125 μM, cultured for 5 days. As to the method:
Jurkat cells (unmodified; WT) were cultured with increasing concentrations of methotrexate (MTX) to determine the MTX dosage window required to kill WT cells (see FIG. 28). A dose range of between 0.00625 and 0.025 μM MTX was selected for subsequent assessment of HPRT Knockout (IDT-4 modified) Jurkat cells.
Dose response of HPRT Knockout (IDT-4 modified) Jurkat cells to MTX was compared to unmodified Jurkat cells (WT) to determine sensitivity to MTX (see FIG. 29).

Series [7] concerns HPRT protein. The series can be described thus: Western blot for HPRT protein in Jurkat cells. Particulars: modified Jurkat cells; actin loading control. It is filed as cell-based. On the procedure: as §1
Unmodified (WT) and IDT-4 modified Jurkat cells were also analyzed for HPRT protein using Western blot (see FIG. 25). […] Actin protein detection (bottom panel) was used as a protein loading control.

Where [8] appears, read: 900 nM of 6TG compared with 300/600 nM of 6TG.

On to `COc1c(C)c2c(c(O)c1C/C=C(\C)CCC(=O)O)C(=O)OC2` [MPA, mycophenolic acid], for which, in series [1], the “HPRT knockout population of CEM cells under MPA or MTX” value is listed as “eliminated at a faster pace” and the “GFP-population of transduced cells under MPA or MTX” value is recorded as “decreased”.
Take `CN(Cc1cnc2nc(N)nc(N)c2n1)c1ccc(C(=O)N[C@@H](CCC(=O)O)C(=O)O)cc1` [MTX, methotrexate]: in series [1], the “HPRT knockout population of CEM cells under MPA or MTX” value is “eliminated at a faster pace” and the “GFP-population of transduced cells under MPA or MTX” value was “decreased”. In addition, in series [2], the “GFP-population of transduced K562 cells under MTX” value is listed as “decreased” and the “transfected (HPRT knockout) K562 cells under MTX” value is recorded as “eliminated”.
For the compound `Nc1nc2nc[nH]c2c(=S)[nH]1` [Vector 6TG, 6-thioguanine], the “speed of selection of HPRT knockout CEM cells” value in series [3] (setting [8]) was “faster selection”. In addition, in series [3] (CEM experiment, day 3 to day 17), the “GFP+ population of transduced cells under treatment of 6TG” value is on record as “increased”. In series [3] (day 3 to 17), the “HPRT knockout population of CEM cells under treatment of 6TG” value is “increased”. Also, the “cell viability (luminescence) of unmodified (wild type) Jurkat cells” value in series [4] (increasing concentrations of 6-TG) is “decrease in cell viability”. The “speed of selection of HPRT knockout K562 cells” value in series [5] (setting [8]) is listed as “faster selection”. In addition, the “HPRT knockout population of K562 cells under treatment with 6TG (InDel %, T7E1 assay)” value in series [5] (CRISPR/Cas9 nanocapsule transfected, day 3 to 14) is reported as “increased”. In addition, the “GFP+ population of transduced K562 cells under treatment of 6TG” value in series [5] (HPRT knockdown vector with GFP, day 3 to day 14) was “increased”.
In the case of “IDT-4: lead HPRT guide RNA, SEQ ID NO: 36, GGTTATGACCTTGATTTATT; used as Cas9 RNP (used with tracrRNA as Cas9 RNP, further chemistry not given here)”, the “sensitivity to MTX compared to wild type Jurkat cells” value in series [6] is listed as “increased sensitivity to MTX”. In addition, the “cell viability (luminescence) of gRNA-modified Jurkat cells with increasing 6-TG” value in series [4] (6-TG tested up to 10 uM) is “resistance to increasing doses of 6-TG”. Besides, the “HPRT protein level by Western blot” value in series [7] is “undetectable levels of HPRT”.
